Where “and” joins values, the source holds several entries; their conditions need not be identical. Equal values may be shown once.
Species on record: Rattus norvegicus
Assay: Open TG-GATES - Regimen: Single
Type: toxicity, organism-based, Sprague-Dawley
Design: regimen Single, gender Male, age 6 weeks
Conditions: in vivo, po, route gavage; for ALT / AST / BUN / CRE / Ca / Cl / GLC / IP / K / LDH / Na / PL / RALB / TC / TG / TP / A/G / ALP / DBIL / TBIL / gamma-GTP: tissue Plasma; for APTT / Bas / Eos / Fbg / Hb / Ht / Lym / MCH / MCHC / MCV / Mono / Neu / PT / Plat / RBC / Ret / WBC: tissue Blood; for KIDNEY_L / KIDNEY_R / KIDNEY_TOTAL: tissue Kidney; for LIVER: tissue Liver
[1] = 0 mg/kg, 24 h, dose level Control

## O=C1CN(/N=C/c2ccc([N+](=O)[O-])o2)C(=O)N1 [NITROFURANTOIN]
[1]
  ALT: 40.2 IU/L and 32.2 IU/L
  AST: 67 IU/L and 61.8 IU/L
  BUN: 15.6 mg/dL and 16 mg/dL
  CRE: 0.4 mg/dL
  Ca: 10.9 mg/dL and 11.3 mg/dL
  Cl: 101.4 meq/L and 105.8 meq/L
  GLC: 211.2 mg/dL and 198.2 mg/dL
  IP: 7.6 mg/dL and 9.2 mg/dL
  K: 4 meq/L and 4.4 meq/L
  LDH: 161.6 IU/L and 69.4 IU/L
  Na: 140 meq/L and 141 meq/L
  PL: 149.8 mg/dL and 148.2 mg/dL
  RALB: 3.2 g/dL and 3.9 g/dL
  TC: 76.4 mg/dL and 80.6 mg/dL
  TG: 110 mg/dL and 123 mg/dL
  TP: 5.6 g/dL and 5.5 g/dL
10 mg/kg, 3 h, dose level Low
  TERMINAL_BW: 221.7 g
  APTT: 20.2 s
  Bas: 0%
  Eos: 1.2%
  Fbg: 216.6 mg/dL
  Hb: 13.5 g/dL
  Ht: 38.5%
  Lym: 77%
  MCH: 21.5 pg
  MCHC: 35.1%
  MCV: 61.3 fL
  Mono: 3%
  Neu: 17.4%
  PT: 12.5 s
  Plat: 112.9 x10_4/uL
  RBC: 628.8 x10_4/ul
  Ret: 7.4%
  WBC: 88.6 x10_2/uL
  KIDNEY_L: 1 g
  KIDNEY_R: 1 g
  KIDNEY_TOTAL: 2 g
  LIVER: 10.3 g
  A/G: 1.6
  ALP: 999 IU/L
  ALT: 42.2 IU/L
  AST: 69.6 IU/L
  BUN: 12.2 mg/dL
  CRE: 0.3 mg/dL
  Ca: 10.8 mg/dL
  Cl: 101.8 meq/L
  DBIL: 0.076 mg/dL
  GLC: 194.8 mg/dL
  IP: 8.7 mg/dL
  K: 3.9 meq/L
  LDH: 198.6 IU/L
  Na: 141 meq/L
  PL: 141.2 mg/dL
  RALB: 3.3 g/dL
  TBIL: 0.1 mg/dL
  TC: 81 mg/dL
  TG: 67.4 mg/dL
  TP: 5.4 g/dL
  gamma-GTP: 0.8 IU/L
10 mg/kg, 6 h, dose level Low
  TERMINAL_BW: 217.9 g
  APTT: 19.4 s
  Bas: 0%
  Eos: 1%
  Fbg: 222.2 mg/dL
  Hb: 13.6 g/dL
  Ht: 38.4%
  Lym: 76.2%
  MCH: 21.6 pg
  MCHC: 35.3%
  MCV: 61 fL
  Mono: 2.8%
  Neu: 18.4%
  PT: 12.7 s
  Plat: 121.4 x10_4/uL
  RBC: 629.8 x10_4/ul
  Ret: 7.6%
  WBC: 96.2 x10_2/uL
  KIDNEY_L: 1 g
  KIDNEY_R: 1 g
  KIDNEY_TOTAL: 2 g
  LIVER: 9.9 g
  A/G: 1.7
  ALP: 930.6 IU/L
  ALT: 32 IU/L
  AST: 61 IU/L
  BUN: 11.4 mg/dL
  CRE: 0.4 mg/dL
  Ca: 10.7 mg/dL
  Cl: 102.8 meq/L
  DBIL: 0.088 mg/dL
  GLC: 194.2 mg/dL
  IP: 8.8 mg/dL
  K: 4.2 meq/L
  LDH: 175.8 IU/L
  Na: 140.6 meq/L
  PL: 140.8 mg/dL
  RALB: 3.5 g/dL
  TBIL: 0.1 mg/dL
  TC: 75 mg/dL
  TG: 77.6 mg/dL
  TP: 5.5 g/dL
  gamma-GTP: 0.6 IU/L
10 mg/kg, 9 h, dose level Low
  TERMINAL_BW: 215.9 g
  APTT: 18.5 s
  Bas: 0%
  Eos: 1%
  Fbg: 226.2 mg/dL
  Hb: 13.3 g/dL
  Ht: 37.5%
  Lym: 79.6%
  MCH: 21.9 pg
  MCHC: 35.5%
  MCV: 61.8 fL
  Mono: 2.6%
  Neu: 15.8%
  PT: 12.7 s
  Plat: 112.8 x10_4/uL
  RBC: 607 x10_4/ul
  Ret: 7.3%
  WBC: 86.5 x10_2/uL
  KIDNEY_L: 1 g
  KIDNEY_R: 1 g
  KIDNEY_TOTAL: 2 g
  LIVER: 9.4 g
  A/G: 1.6
  ALP: 712.8 IU/L
  ALT: 32.2 IU/L
  AST: 56.2 IU/L
  BUN: 10.2 mg/dL
  CRE: 0.3 mg/dL
  Ca: 10.4 mg/dL
  Cl: 103 meq/L
  DBIL: 0.068 mg/dL
  GLC: 197.2 mg/dL
  IP: 9.4 mg/dL
  K: 3.8 meq/L
  LDH: 205.2 IU/L
  Na: 140.6 meq/L
  PL: 140 mg/dL
  RALB: 3.4 g/dL
  TBIL: 0.1 mg/dL
  TC: 79.8 mg/dL
  TG: 51.2 mg/dL
  TP: 5.5 g/dL
  gamma-GTP: 0.6 IU/L
10 mg/kg, 24 h, dose level Low
  TERMINAL_BW: 233.4 g
  APTT: 18.6 s
  Bas: 0%

— ChEMBL document CHEMBL3885861, “Open TG-GATES”
